Measured values as given in patent US20220306659A1, “COMPOUND INHIBITING AND INDUCING DEGRADATION OF EGFR AND ALK” (BEIJING TIDE PHARMACEUTICAL CO., LTD., priority 2019, published 2022).

What was measured:
EGFR^L858R/T790M/C797S = EGFR^L858R/T790M/C797S (Homo sapiens, UniProt P00533, C797S/L858R/T790M); assay: EGFR inhibitory activity assay (TK-substrate-biotin/ATP, 665/615 ratio); type: biochemical; conditions: kinase inhibition
Summary of the method: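 HTRF kinase assay: enzyme preincubated with compound 10 min at room temperature, then reacted with biotinylated TK substrate and ATP for 40 min at room temperature.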

ALK = ALK (Homo sapiens, UniProt Q9UM73); assay: Assay of activity on ALK kinase; type: biochemical; conditions: kinase inhibition
ALK, sequence (Q9UM73 19-1620): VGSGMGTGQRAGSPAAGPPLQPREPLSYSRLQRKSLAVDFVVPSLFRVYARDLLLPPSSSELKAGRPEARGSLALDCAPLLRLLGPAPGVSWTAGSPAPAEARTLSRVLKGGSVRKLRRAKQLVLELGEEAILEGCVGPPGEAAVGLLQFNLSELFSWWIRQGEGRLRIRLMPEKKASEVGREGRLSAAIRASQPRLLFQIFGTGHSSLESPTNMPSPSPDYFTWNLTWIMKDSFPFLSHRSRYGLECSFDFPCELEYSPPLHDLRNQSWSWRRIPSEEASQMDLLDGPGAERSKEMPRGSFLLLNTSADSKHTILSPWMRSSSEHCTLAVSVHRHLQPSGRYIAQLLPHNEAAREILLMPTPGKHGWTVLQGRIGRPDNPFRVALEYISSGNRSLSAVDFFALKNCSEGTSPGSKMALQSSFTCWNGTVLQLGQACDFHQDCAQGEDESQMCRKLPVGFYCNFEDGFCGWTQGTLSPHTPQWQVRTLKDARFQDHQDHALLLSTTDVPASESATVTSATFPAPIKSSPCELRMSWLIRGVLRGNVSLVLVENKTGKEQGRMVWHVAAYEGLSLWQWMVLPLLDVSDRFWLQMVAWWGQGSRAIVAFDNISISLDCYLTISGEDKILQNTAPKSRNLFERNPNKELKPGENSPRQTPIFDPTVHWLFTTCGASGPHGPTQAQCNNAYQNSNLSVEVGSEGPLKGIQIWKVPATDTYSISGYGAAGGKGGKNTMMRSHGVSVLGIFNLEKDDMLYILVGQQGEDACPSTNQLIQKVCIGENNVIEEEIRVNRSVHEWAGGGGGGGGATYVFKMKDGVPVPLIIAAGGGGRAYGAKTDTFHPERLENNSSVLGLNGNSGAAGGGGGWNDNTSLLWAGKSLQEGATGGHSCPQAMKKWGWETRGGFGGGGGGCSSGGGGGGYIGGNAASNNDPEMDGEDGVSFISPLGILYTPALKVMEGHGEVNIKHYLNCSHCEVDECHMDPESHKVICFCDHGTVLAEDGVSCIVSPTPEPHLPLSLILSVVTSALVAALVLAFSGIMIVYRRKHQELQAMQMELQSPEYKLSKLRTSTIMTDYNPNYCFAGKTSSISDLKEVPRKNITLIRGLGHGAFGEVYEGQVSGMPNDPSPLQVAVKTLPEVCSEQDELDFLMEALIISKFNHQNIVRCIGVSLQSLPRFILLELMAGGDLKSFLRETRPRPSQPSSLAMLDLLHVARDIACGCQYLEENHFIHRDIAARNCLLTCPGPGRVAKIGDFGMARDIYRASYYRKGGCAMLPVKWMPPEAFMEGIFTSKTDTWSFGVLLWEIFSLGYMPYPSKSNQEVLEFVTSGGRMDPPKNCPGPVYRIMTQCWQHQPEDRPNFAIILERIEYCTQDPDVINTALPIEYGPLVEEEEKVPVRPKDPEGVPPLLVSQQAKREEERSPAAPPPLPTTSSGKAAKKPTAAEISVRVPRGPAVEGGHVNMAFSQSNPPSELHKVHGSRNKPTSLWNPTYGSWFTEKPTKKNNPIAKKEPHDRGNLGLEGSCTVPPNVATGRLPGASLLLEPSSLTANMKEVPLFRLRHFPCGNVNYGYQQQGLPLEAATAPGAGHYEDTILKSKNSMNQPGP
Experimental: (§1) Assay of activity on ALK kinase
(§2) (1) A compound stock solution was prepared;
(§3) (2) The compound stock solution was diluted 3× to obtain a compound dilution;
(§4) (5) 5 μl of the 2× kinase working solution was added to the reaction plate, centrifuged at 1,000 rpm for 1 min, and incubated at 25° C. for 15 min;
(§5) (7) 5 μl of the TK-substrate-biotin and ATP (the mixture prepared in step (6)) was added to initiate the reaction;
(§6) (8) The mixture was centrifuged at 1,000 g for 30 s; the plate was sealed, and incubated at 25° C. for 60 min;
(§7) (11) The mixture was centrifuged at 1,000 g for 1 min, and incubated at 25° C. for 60 min;
(§8) Formula of inhibition rate (%): […]
(§9) The nonlinear regression curve (dose response-variable slope) between the value of inhibition rate (%) and the logarithm of compound concentration was fitted with graphpad prism 8.0, the effect dose curve of compound was drawn, and the IC50 value was calculated.
(§10) Y=Bottom+(Top−Bottom)/(1+10^((LogIC50−X)*Hill Slope))
(§11) X-axis: logarithm of compound concentration; Y axis: inhibition rate ([…])

EGFR^Del19/T790M/C797S = EGFR^Del19/T790M/C797S (Homo sapiens, UniProt P00533, C797S/DEL746-750/T790M); assay: EGFR inhibitory activity assay (TK-substrate-biotin/ATP, 665/615 ratio); type: biochemical; conditions: kinase inhibition
EGFR^Del19/T790M/C797S, sequence (P00533 with tags, fused parts or gaps DEL746-750/T790M/C797S): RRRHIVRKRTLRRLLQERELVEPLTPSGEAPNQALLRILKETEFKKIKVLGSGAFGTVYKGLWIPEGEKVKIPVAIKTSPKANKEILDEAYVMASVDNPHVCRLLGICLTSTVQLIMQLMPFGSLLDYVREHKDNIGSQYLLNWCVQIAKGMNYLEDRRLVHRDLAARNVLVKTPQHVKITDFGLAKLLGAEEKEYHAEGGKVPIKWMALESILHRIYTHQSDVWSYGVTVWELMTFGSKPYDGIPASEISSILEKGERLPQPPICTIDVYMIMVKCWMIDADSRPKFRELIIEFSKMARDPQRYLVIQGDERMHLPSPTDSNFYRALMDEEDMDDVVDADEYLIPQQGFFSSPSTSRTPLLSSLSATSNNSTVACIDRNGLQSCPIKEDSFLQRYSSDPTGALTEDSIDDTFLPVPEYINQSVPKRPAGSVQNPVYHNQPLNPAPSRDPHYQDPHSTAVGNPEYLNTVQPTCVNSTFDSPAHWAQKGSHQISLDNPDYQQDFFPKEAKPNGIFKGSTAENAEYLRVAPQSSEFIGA
Experimental: EGFR Inhibitory Activity Assay
(2) The plate was sealed, and centrifuged at 1,000 g for 1 min;
(4) 5 μl of the 2×EGFR protein working solution was added to the 384-well plate from step (2), centrifuged at 1,000 g for 30 s, and allowed to stand at room temperature (mixed thoroughly) for 10 min;
(6) 5 µL of the TK-substrate-biotin and ATP (the mixture prepared in step (5)) was added to the 384-well plate from step (4) to initiate the reaction;
(7) The mixture was centrifuged at 1,000 g for 30 s; the plate was sealed, and allowed to stand (and reacted) at room temperature for 40 min;
(10) The mixture was centrifuged at 1,000 g for 30 s, and allowed to stand (reacted) at room temperature for 1 h;
as §8, §9

[1] = biological target: Ba/F3(EGFR^L858R/T790M/C797S) cells (Homo sapiens, UniProt P00533, T790M/C797S/L858R, cells depend on it); assay: Assay of activity on Ba/F3 cells (CTG, 72 h); type: cell-based; conditions: read-out: IC50 (nM) Ba/F3 (EGFR^L858R/T790M/C797S)
Summary of the method: (§12)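 Ba/F3 cells dependent on each EGFR triple mutant were exposed to 3-fold compound dilutions for 72 h at 37° C, 5% CO2, with CellTiter-Glo luminescence as the read-out.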

ALK^G1202R = ALK^G1202R (Homo sapiens, UniProt Q9UM73, G1202R); assay: Assay of activity on ALK kinase; type: biochemical; conditions: kinase inhibition
ALK^G1202R, sequence (Q9UM73 19-1620 G1202R): as the sequence (Q9UM73 19-1620) above, with G1184R counted along it
Experimental: as §1, §2, §3, §4, §5, §6, §7, §8, §9, §10, §11

Ba/F3(EML4-ALK) cells = biological target: T1, Ba/F3(EML4-ALK) cells (Homo sapiens, UniProt Q9UM73); assay: Assay of activity on Ba/F3(EML4-ALK) cells (CTG, 72 h); type: cell-based; conditions: read-out: IC50 (nM) Ba/F3(EML4-ALK)
T1 construct: fused on or other part: Q9HC35 (Echinoderm microtubule-associated protein-like 4)
T1 sequence (Q9UM73 whole entry, change not shown, the tested form may be a part): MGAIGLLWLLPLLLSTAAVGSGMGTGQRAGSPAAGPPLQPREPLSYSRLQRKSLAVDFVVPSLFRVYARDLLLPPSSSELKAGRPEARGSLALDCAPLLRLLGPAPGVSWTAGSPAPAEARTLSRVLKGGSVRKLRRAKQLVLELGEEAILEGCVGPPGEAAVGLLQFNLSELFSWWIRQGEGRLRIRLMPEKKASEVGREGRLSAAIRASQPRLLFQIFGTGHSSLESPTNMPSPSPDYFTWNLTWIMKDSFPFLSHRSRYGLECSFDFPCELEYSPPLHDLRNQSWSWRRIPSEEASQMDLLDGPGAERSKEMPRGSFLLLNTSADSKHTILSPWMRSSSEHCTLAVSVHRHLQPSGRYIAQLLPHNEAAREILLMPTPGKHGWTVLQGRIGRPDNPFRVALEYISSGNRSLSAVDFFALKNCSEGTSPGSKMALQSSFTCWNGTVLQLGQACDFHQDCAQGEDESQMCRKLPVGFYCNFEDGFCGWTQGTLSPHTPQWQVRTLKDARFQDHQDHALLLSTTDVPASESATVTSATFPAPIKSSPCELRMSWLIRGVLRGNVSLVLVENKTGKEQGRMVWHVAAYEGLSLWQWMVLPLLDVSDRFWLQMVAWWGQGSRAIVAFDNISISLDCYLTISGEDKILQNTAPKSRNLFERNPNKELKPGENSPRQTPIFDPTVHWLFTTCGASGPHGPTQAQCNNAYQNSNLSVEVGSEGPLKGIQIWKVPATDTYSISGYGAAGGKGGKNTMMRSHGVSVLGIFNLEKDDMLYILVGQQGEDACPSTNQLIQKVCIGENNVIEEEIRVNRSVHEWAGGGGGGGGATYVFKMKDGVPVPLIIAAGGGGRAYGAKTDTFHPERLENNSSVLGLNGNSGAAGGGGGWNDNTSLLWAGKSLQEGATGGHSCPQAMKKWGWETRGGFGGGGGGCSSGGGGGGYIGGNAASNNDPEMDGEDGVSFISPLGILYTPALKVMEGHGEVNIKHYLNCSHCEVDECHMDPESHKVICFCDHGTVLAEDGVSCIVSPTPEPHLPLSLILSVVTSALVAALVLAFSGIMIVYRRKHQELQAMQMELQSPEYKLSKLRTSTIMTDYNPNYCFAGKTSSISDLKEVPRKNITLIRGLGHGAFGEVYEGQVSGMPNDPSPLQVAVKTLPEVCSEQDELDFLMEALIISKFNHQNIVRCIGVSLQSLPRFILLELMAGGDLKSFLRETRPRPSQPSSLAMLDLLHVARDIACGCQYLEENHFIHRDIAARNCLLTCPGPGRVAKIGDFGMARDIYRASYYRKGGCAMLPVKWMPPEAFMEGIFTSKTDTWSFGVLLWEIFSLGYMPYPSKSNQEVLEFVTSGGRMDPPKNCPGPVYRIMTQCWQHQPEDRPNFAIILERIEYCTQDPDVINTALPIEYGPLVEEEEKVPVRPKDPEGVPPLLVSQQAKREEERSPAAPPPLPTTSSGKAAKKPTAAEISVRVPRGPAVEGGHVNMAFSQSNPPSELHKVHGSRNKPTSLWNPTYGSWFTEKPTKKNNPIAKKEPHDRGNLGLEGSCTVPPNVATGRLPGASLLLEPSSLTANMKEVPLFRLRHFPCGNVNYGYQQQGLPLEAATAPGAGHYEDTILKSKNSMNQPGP
Summary of the method: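 Ba/F3(EML4-ALK) cells, 700 per well, were exposed to 3-fold serial compound dilutions for 72 h at 37° C, 5% CO2, and viability was then read by CTG luminescence.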

[2] = biological target: Ba/F3(EGFR^Del19/T790M/C797S) cells (Homo sapiens, UniProt P00533, DEL746-750/T790M/C797S, cells depend on it); assay: Assay of activity on Ba/F3 cells (CTG, 72 h); type: cell-based; conditions: read-out: IC50 (nM) Ba/F3 (EGFR^Del19/T790M/C797S)
Summary of the method: as §12

EGFR^L858R/T790M/C797S, sequence (P00533 25-1210 T790M/C797S/L858R): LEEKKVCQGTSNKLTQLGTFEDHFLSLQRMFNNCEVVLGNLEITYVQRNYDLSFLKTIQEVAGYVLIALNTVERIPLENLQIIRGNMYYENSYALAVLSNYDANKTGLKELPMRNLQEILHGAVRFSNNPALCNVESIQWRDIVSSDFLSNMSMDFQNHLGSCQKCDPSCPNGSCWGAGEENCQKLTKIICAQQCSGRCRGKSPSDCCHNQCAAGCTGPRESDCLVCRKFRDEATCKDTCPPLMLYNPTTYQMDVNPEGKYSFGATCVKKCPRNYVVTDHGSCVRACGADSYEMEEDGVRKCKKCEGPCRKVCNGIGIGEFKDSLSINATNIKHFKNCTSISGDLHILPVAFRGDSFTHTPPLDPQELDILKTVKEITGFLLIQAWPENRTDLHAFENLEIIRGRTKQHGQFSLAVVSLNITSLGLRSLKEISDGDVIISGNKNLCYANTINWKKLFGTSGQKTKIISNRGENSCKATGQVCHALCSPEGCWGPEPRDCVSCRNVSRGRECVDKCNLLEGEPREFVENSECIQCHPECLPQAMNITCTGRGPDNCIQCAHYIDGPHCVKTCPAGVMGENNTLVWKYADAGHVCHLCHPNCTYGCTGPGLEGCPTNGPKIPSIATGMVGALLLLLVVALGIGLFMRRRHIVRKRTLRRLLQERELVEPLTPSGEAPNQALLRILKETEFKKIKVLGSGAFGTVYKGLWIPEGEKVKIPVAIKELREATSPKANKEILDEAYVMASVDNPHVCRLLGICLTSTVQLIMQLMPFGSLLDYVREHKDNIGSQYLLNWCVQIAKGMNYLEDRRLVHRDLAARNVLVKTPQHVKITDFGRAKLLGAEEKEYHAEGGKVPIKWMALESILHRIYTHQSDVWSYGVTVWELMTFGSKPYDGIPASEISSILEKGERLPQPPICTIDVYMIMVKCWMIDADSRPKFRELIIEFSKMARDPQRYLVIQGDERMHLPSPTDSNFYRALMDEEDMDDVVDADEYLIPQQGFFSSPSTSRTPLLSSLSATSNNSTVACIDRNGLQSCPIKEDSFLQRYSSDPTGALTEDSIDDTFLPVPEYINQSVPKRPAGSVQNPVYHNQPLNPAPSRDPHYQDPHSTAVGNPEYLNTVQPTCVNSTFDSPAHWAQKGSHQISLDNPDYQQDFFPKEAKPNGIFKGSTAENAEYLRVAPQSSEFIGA

SMILES	IC50 (EGFR^L858R/T790M/C797S) [nM]	IC50 (ALK) [nM]	IC50 (EGFR^Del19/T790M/C797S) [nM]	GI50 [1] [nM]	IC50 (ALK^G1202R) [nM]	GI50 (Ba/F3(EML4-ALK) cells) [nM]	GI50 [2] [nM]
COc1cc(N2CCC(N3CCN(C(=O)CCCCCCc4cccc5c4C(=O)N(C4CCC(=O)NC4=O)C5=O)CC3)CC2)ccc1Nc1ncc(Cl)c(Nc2ccccc2P(C)(C)=O)n1 (centres unmarked) [Compound A1, 4-(7-(4-(1-(4-((5-chloro-4-((2-(dimethylphosphoryl)phenyl)amino)pyrimidin-2-yl)amino)-3-methoxyphenyl)piperidin-4-yl)piperazin-1-yl)-7-oxoheptyl)-2-(2,6-dioxopiperidin-3-yl)isoindoline-1,3-dione]	1 to 100	101 to 200	101 to 200	201 to 300	–	–	–
COc1cc(N2CCC(N3CCN(C(=O)CCCCCCOc4cccc5c4C(=O)N(C4CCC(=O)NC4=O)C5=O)CC3)CC2)ccc1Nc1ncc(Cl)c(Nc2ccccc2P(C)(C)=O)n1 (centres unmarked) [Compound A2, 4-((7-(4-(1-(4-((5-chloro-4-((2-(dimethylphosphoryl)phenyl)amino)pyrimidin-2-yl)amino)-3-methoxyphenyl)piperidin-4-yl)piperazin-1-yl)-7-oxoheptyl)oxy)-2-(2,6-dioxopiperidin-3-yl)isoindoline-1,3-dione]	1 to 100	1 to 100	101 to 200	201 to 300	–	–	–
COc1cc(N2CCC(N3CCN(CCOCCOCCOCCNC(=O)COc4cccc5c4C(=O)N(C4CCC(=O)NC4=O)C5=O)CC3)CC2)ccc1Nc1ncc(Cl)c(Nc2ccccc2P(C)(C)=O)n1 (centres unmarked) [Compound A3, N-(2-(2-(2-(2-(4-(1-(4-((5-chloro-4-((2-(dimethylphosphoryl)phenyl)amino)pyrimidin-2-yl)amino)-3-methoxyphenyl)piperidin-4-yl)piperazin-1-yl)ethoxy)ethoxy)ethoxy)ethyl)-2-((2-(2,6-dioxopiperidin-3-yl)-1,3-dioxoisoindolin-4-yl)oxy)acetamide]	1 to 100	–	1 to 100	–	–	–	–
COc1cc(N2CCC(N3CCN(CCCCCCCNc4cccc5c4CN(C4CCC(=O)NC4=O)C5=O)CC3)CC2)ccc1Nc1ncc(Cl)c(Nc2ccccc2P(C)(C)=O)n1 (centres unmarked) [Compound A12, 3-(4-((7-(4-(1-(4-((5-chloro-4-((2-(dimethylphosphoryl)phenyl)amino)pyrimidin-2-yl)amino)-3-methoxyphenyl)piperidin-4-yl)piperazin-1-yl)heptyl)amino)-1-oxoisoindolin-2-yl)piperidine-2,6-dione]	1 to 100	1 to 100	–	1 to 100	101 to 200	1 to 100	–
COc1cc(N2CCC(N3CCN(CCCCCCCCCNc4cccc5c4CN(C4CCC(=O)NC4=O)C5=O)CC3)CC2)ccc1Nc1ncc(Cl)c(Nc2ccccc2P(C)(C)=O)n1 (centres unmarked) [Compound A13, 3-(4-((9-(4-(1-(4-((5-chloro-4-((2-(dimethylphosphoryl)phenyl)amino)pyrimidin-2-yl)amino)-3-methoxyphenyl)piperidin-4-yl)piperazin-1-yl)nonyl)amino)-1-oxoisoindolin-2-yl)piperidine-2,6-dione]	101 to 200	1 to 100	–	101 to 200	> 300	1 to 100	–
COc1cc(N2CCC(N3CCN(CC(=O)Nc4cccc5c4CN(C4CCC(=O)NC4=O)C5=O)CC3)CC2)ccc1Nc1ncc(Cl)c(Nc2ccccc2P(C)(C)=O)n1 (centres unmarked) [Compound A17, 2-(4-(1-(4-((5-chloro-4-((2-(dimethylphosphoryl)phenyl)amino)pyrimidin-2-yl)amino)-3-methoxyphenyl)piperidin-4-yl)piperazin-1-yl)-N-(2-(2,6-dioxopiperidin-3-yl)-1-oxoisoindolin-4-yl)acetamide]	1 to 100	–	1 to 100	–	–	–	–
COc1cc(N2CCC3(CCN(CCCCC#Cc4cccc5c4CN(C4CCC(=O)NC4=O)C5=O)CC3)CC2)c(C)cc1Nc1ncc(Br)c(Nc2ccc3nccnc3c2P(C)(C)=O)n1 (centres unmarked) [Compound C187, 3-(4-(6-(9-(4-((5-bromo-4-((5-(dimethylphosphoryl)quinoxalin-6-yl)amino)pyrimidin-2-yl)amino)-5-methoxy-2-methylphenyl)-3,9-diazaspiro[5.5]undecan-3-yl)hex-1-yn-1-yl)-1-oxoisoindolin-2-yl)piperidine-2,6-dione]	1 to 100	–	1 to 100	–	–	1 to 100	1 to 100
